Patent US11109593B2, “Isoxazolin-5-one derivative and herbicide containing same as active ingredient” (HOKKO CHEMICAL INDUSTRY CO., LTD., priority 2017, dated 2021)

Experiments:
Format in all cases: in vivo
Chenopodium album [1] = assay: Test Example 4: herbicidal effect test by treatment of leave and stem in dry field farming (seven days after seeding); settings: 120 g/10a active ingredient; emulsion sprayed seven days after seeding; evaluated 14 days after treatment
Outline: (§1)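 Twenty seeds per species were mixed into the top 1 cm of alluvial soil in 36 cm^2 pots; emulsions were sprayed seven days after seeding at 100 L per 10 ares (120 g active ingredient per 10 ares). Herbicidal rate (%) = {1 − treated/untreated mean dry weight} × 100, 14 days after treatment, duplicate.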

Amaranthus viridis [2] = assay: as above; settings: 120 g/10a active ingredient; emulsion sprayed seven days after seeding; evaluated 14 days after treatment
Outline: as §1

Echinochloa crus-galli [3] = assay: as above; settings: 120 g/10a active ingredient; emulsion sprayed seven days after seeding; evaluated 14 days after treatment
Outline: as §1

southern crabgrass [4] = assay: as above; settings: 120 g/10a active ingredient; emulsion sprayed seven days after seeding; evaluated 14 days after treatment
Outline: as §1

[5] = tested on: broad leaf weeds (Lindernia pyxidaria and Monochoria vaginalis); assay: Test Example 1: herbicidal effect test by treatment of rice paddy soil (immediately after seeding); settings: 120 g/10a active ingredient, dry weight vs untreated area, 14 days after treatment
Outline: (§2)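 Values are herbicidal rates (%) derived from average plant dry weight in treated versus untreated pots 14 days after treatment, run in duplicate. Treatment was a water-diluted emulsion dropped into flooded paddy soil right after sowing, at 120 g active ingredient per 10 ares.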

Echinochloa crus-galli [6] = assay: as above; settings: 120 g/10a active ingredient, dry weight vs untreated area, 14 days after treatment
Outline: as §2

Scirpus juncoides [7] = assay: as above; settings: 120 g/10a active ingredient, dry weight vs untreated area, 14 days after treatment
Outline: as §2

[8] = tested on: broad leaf weeds (Lindernia pyxidaria and Monochoria vaginalis); assay: Test Example 2: herbicidal effect test by treatment during growing period in paddy rice cultivation (seven days after seeding); settings: 120 g/10a active ingredient, assessed 14 days after treatment, dry weight vs untreated area
Outline: (§3)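 Post-emergence paddy water application: compounds were formulated as emulsions, diluted and dropped into flooded pots seven days after sowing at a rate equivalent to 120 g per 10 ares. Efficacy was taken as dry-weight reduction relative to untreated controls after 14 days.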

Echinochloa crus-galli [9] = assay: as above; settings: 120 g/10a active ingredient, assessed 14 days after treatment, dry weight vs untreated area
Outline: as §3

Scirpus juncoides [10] = assay: as above; settings: 120 g/10a active ingredient, assessed 14 days after treatment, dry weight vs untreated area
Outline: as §3

Chenopodium album [11] = assay: Test Example 3: herbicidal effect test by treatment of dry field farming soil (one day after seeding); settings: 120 g/10a active ingredient, evaluated 14 days after treatment
Outline: (§4)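 Dry-field alluvium pots; weed seeds incorporated in top 1 cm; soil spray of diluted emulsion 1 d after seeding, 120 g a.i./10 a in 100 L/10 a. Readout: % reduction of dry weight vs untreated, day 14, duplicates.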

Amaranthus viridis [12] = assay: as above; settings: 120 g/10a active ingredient, evaluated 14 days after treatment
Outline: as §4

Echinochloa crus-galli [13] = assay: as above; settings: 120 g/10a active ingredient, evaluated 14 days after treatment
Outline: as §4

southern crabgrass [14] = assay: as above; settings: 120 g/10a active ingredient, evaluated 14 days after treatment
Outline: as §4

For `COC(=O)N(c1ccccc1Cc1c(C)n(C(C)(C)C)oc1=O)S(=O)(=O)C(F)(F)F` [Compound 1-576], the “herbicidal effect (herbicidal rate), Chenopodium album” value (shortened to “herbicidal effect … Chenopodium album”) (Chenopodium album [1]) was 40%, the “herbicidal effect (herbicidal rate), Amaranthus viridis” value (shortened to “herbicidal effect … Amaranthus viridis”) (Amaranthus viridis [2]) was 40% and the “herbicidal effect (herbicidal rate), Echinochloa crus-galli” value (Echinochloa crus-galli [3]) was 90%. For the same molecule, the “herbicidal effect (herbicidal rate), southern crabgrass” value (“herbicidal effect … southern crabgrass” below) (southern crabgrass [4]) was 90%, the “Herbicidal rate (%) Lindernia pyxidaria” value [5] was 90% and the “Herbicidal rate (%) Monochoria vaginalis” value [5] was 90%. The “Herbicidal rate (%) Echinochloa crus-galli” value (Echinochloa crus-galli [6]) was 90%, the “Herbicidal rate (%) Scirpus juncoides” value (Scirpus juncoides [7]) was 90% and the “Herbicidal rate (%) Lindernia pyxidaria” value [8] was 90%. The “Herbicidal rate (%) Monochoria vaginalis” value [8] was 90%, the “Herbicidal rate (%) Echinochloa crus-galli” value (Echinochloa crus-galli [9]) was 90% and the “Herbicidal rate (%) Scirpus juncoides” value (Scirpus juncoides [10]) was 90%. The “herbicidal rate, Chenopodium album” value (Chenopodium album [11]) was 90%, the “herbicidal rate, Amaranthus viridis” value (Amaranthus viridis [12]) was 90% and the “herbicidal rate, Echinochloa crus-galli” value (Echinochloa crus-galli [13]) was 90%. For the same molecule, the “herbicidal rate, southern crabgrass” value (southern crabgrass [14]) was 90%.
`Cc1c(Cc2ccccc2N(S(=O)(=O)C(F)(F)F)S(=O)(=O)C(F)(F)F)c(=O)on1C1CCCCC1` [Compound 1-990] was tested, and the “herbicidal effect … Chenopodium album” value (Chenopodium album [1]) was 40%, the “herbicidal effect … Amaranthus viridis” value (Amaranthus viridis [2]) was 50% and the “herbicidal effect (herbicidal rate), Echinochloa crus-galli” value (Echinochloa crus-galli [3]) was 60%. For the same molecule, the “herbicidal effect … southern crabgrass” value (southern crabgrass [4]) was 0%, the “Herbicidal rate (%) Lindernia pyxidaria” value [5] was 90% and the “Herbicidal rate (%) Monochoria vaginalis” value [5] was 80%. The “Herbicidal rate (%) Echinochloa crus-galli” value (Echinochloa crus-galli [6]) was 90%, the “Herbicidal rate (%) Scirpus juncoides” value (Scirpus juncoides [7]) was 80% and the “Herbicidal rate (%) Lindernia pyxidaria” value [8] was 100%. The “Herbicidal rate (%) Monochoria vaginalis” value [8] was 80%, the “Herbicidal rate (%) Echinochloa crus-galli” value (Echinochloa crus-galli [9]) was 100% and the “Herbicidal rate (%) Scirpus juncoides” value (Scirpus juncoides [10]) was 80%. For the same molecule, the “herbicidal rate, Chenopodium album” value (Chenopodium album [11]) was 50%, the “herbicidal rate, Amaranthus viridis” value (Amaranthus viridis [12]) was 0% and the “herbicidal rate, Echinochloa crus-galli” value (Echinochloa crus-galli [13]) was 50%. For the same molecule, the “herbicidal rate, southern crabgrass” value (southern crabgrass [14]) was 50%.
`Cc1c(Cc2ccccc2N(S(=O)(=O)C(F)(F)F)S(=O)(=O)C(F)(F)F)c(=O)on1CC(C)(C)C` [Compound 1-968] was tested, and the “herbicidal effect … Chenopodium album” value (Chenopodium album [1]) was 40%, the “herbicidal effect … Amaranthus viridis” value (Amaranthus viridis [2]) was 40% and the “herbicidal effect (herbicidal rate), Echinochloa crus-galli” value (Echinochloa crus-galli [3]) was 90%. The “herbicidal effect … southern crabgrass” value (southern crabgrass [4]) was 90%, the “Herbicidal rate (%) Lindernia pyxidaria” value [5] was 90% and the “Herbicidal rate (%) Monochoria vaginalis” value [5] was 90%. The “Herbicidal rate (%) Echinochloa crus-galli” value (Echinochloa crus-galli [6]) was 90%, the “Herbicidal rate (%) Scirpus juncoides” value (Scirpus juncoides [7]) was 90% and the “Herbicidal rate (%) Lindernia pyxidaria” value [8] was 90%. The “Herbicidal rate (%) Monochoria vaginalis” value [8] was 90%, the “Herbicidal rate (%) Echinochloa crus-galli” value (Echinochloa crus-galli [9]) was 90% and the “Herbicidal rate (%) Scirpus juncoides” value (Scirpus juncoides [10]) was 90%. For the same molecule, the “herbicidal rate, Chenopodium album” value (Chenopodium album [11]) was 90%, the “herbicidal rate, Amaranthus viridis” value (Amaranthus viridis [12]) was 90% and the “herbicidal rate, Echinochloa crus-galli” value (Echinochloa crus-galli [13]) was 90%. For the same molecule, the “herbicidal rate, southern crabgrass” value (southern crabgrass [14]) was 90%.
`CSCCn1oc(=O)c(Cc2ccccc2N(C(=O)CC(C)C)S(=O)(=O)C(F)(F)F)c1C` [Compound 1-358] was tested, and the “herbicidal effect … Chenopodium album” value (Chenopodium album [1]) was 40%, the “herbicidal effect … Amaranthus viridis” value (Amaranthus viridis [2]) was 40% and the “herbicidal effect (herbicidal rate), Echinochloa crus-galli” value (Echinochloa crus-galli [3]) was 90%. For the same molecule, the “herbicidal effect … southern crabgrass” value (southern crabgrass [4]) was 90%, the “Herbicidal rate (%) Lindernia pyxidaria” value [5] was 90% and the “Herbicidal rate (%) Monochoria vaginalis” value [5] was 90%. For the same molecule, the “Herbicidal rate (%) Echinochloa crus-galli” value (Echinochloa crus-galli [6]) was 90%, the “Herbicidal rate (%) Scirpus juncoides” value (Scirpus juncoides [7]) was 90% and the “Herbicidal rate (%) Lindernia pyxidaria” value [8] was 90%. The “Herbicidal rate (%) Monochoria vaginalis” value [8] was 90%, the “Herbicidal rate (%) Echinochloa crus-galli” value (Echinochloa crus-galli [9]) was 90% and the “Herbicidal rate (%) Scirpus juncoides” value (Scirpus juncoides [10]) was 90%. The “herbicidal rate, Chenopodium album” value (Chenopodium album [11]) was 90%, the “herbicidal rate, Amaranthus viridis” value (Amaranthus viridis [12]) was 90% and the “herbicidal rate, Echinochloa crus-galli” value (Echinochloa crus-galli [13]) was 90%. The “herbicidal rate, southern crabgrass” value (southern crabgrass [14]) was 90%.
`CSCCn1oc(=O)c(Cc2ccccc2N(C(=O)OCC(C)C)S(=O)(=O)C(F)(F)F)c1C` [Compound 1-676] was tested, and the “herbicidal effect … Chenopodium album” value (Chenopodium album [1]) was 40%, the “herbicidal effect … Amaranthus viridis” value (Amaranthus viridis [2]) was 40% and the “herbicidal effect (herbicidal rate), Echinochloa crus-galli” value (Echinochloa crus-galli [3]) was 90%. For the same molecule, the “herbicidal effect … southern crabgrass” value (southern crabgrass [4]) was 90%, the “Herbicidal rate (%) Lindernia pyxidaria” value [5] was 90% and the “Herbicidal rate (%) Monochoria vaginalis” value [5] was 90%. The “Herbicidal rate (%) Echinochloa crus-galli” value (Echinochloa crus-galli [6]) was 90%, the “Herbicidal rate (%) Scirpus juncoides” value (Scirpus juncoides [7]) was 90% and the “Herbicidal rate (%) Lindernia pyxidaria” value [8] was 90%. The “Herbicidal rate (%) Monochoria vaginalis” value [8] was 90%, the “Herbicidal rate (%) Echinochloa crus-galli” value (Echinochloa crus-galli [9]) was 90% and the “Herbicidal rate (%) Scirpus juncoides” value (Scirpus juncoides [10]) was 90%. For the same molecule, the “herbicidal rate, Chenopodium album” value (Chenopodium album [11]) was 90%, the “herbicidal rate, Amaranthus viridis” value (Amaranthus viridis [12]) was 90% and the “herbicidal rate, Echinochloa crus-galli” value (Echinochloa crus-galli [13]) was 90%. For the same molecule, the “herbicidal rate, southern crabgrass” value (southern crabgrass [14]) was 90%.
In the case of `COCC(C)n1oc(=O)c(Cc2ccccc2N(C(=O)Cc2ccccc2)S(=O)(=O)C(F)(F)F)c1C` (centres unmarked) [Compound 1-506], the “herbicidal effect … Chenopodium album” value (Chenopodium album [1]) is reported as 40%, the “herbicidal effect … Amaranthus viridis” value (Amaranthus viridis [2]) is reported as 40% and the “herbicidal effect (herbicidal rate), Echinochloa crus-galli” value (Echinochloa crus-galli [3]) is reported as 90%. For the same molecule, the “herbicidal effect … southern crabgrass” value (southern crabgrass [4]) was 90%, the “Herbicidal rate (%) Lindernia pyxidaria” value [5] was 90% and the “Herbicidal rate (%) Monochoria vaginalis” value [5] was 90%. For the same molecule, the “Herbicidal rate (%) Echinochloa crus-galli” value (Echinochloa crus-galli [6]) was 90%, the “Herbicidal rate (%) Scirpus juncoides” value (Scirpus juncoides [7]) was 90% and the “Herbicidal rate (%) Lindernia pyxidaria” value [8] was 90%. The “Herbicidal rate (%) Monochoria vaginalis” value [8] was 90%, the “Herbicidal rate (%) Echinochloa crus-galli” value (Echinochloa crus-galli [9]) was 90% and the “Herbicidal rate (%) Scirpus juncoides” value (Scirpus juncoides [10]) was 90%. The “herbicidal rate, Chenopodium album” value (Chenopodium album [11]) was 90%, the “herbicidal rate, Amaranthus viridis” value (Amaranthus viridis [12]) was 90% and the “herbicidal rate, Echinochloa crus-galli” value (Echinochloa crus-galli [13]) was 90%. The “herbicidal rate, southern crabgrass” value (southern crabgrass [14]) was 90%.
In the case of `C=CC(C)n1oc(=O)c(Cc2ccccc2NS(=O)(=O)C(F)(F)F)c1C` (centres unmarked) [Compound 1-136], the “herbicidal effect … Chenopodium album” value (Chenopodium album [1]) is reported as 60%, the “herbicidal effect … Amaranthus viridis” value (Amaranthus viridis [2]) is reported as 60% and the “herbicidal effect (herbicidal rate), Echinochloa crus-galli” value (Echinochloa crus-galli [3]) is reported as 70%. The “herbicidal effect … southern crabgrass” value (southern crabgrass [4]) was 70%, the “Herbicidal rate (%) Lindernia pyxidaria” value [5] was 80% and the “Herbicidal rate (%) Monochoria vaginalis” value [5] was 70%. For the same molecule, the “Herbicidal rate (%) Echinochloa crus-galli” value (Echinochloa crus-galli [6]) was 100%, the “Herbicidal rate (%) Scirpus juncoides” value (Scirpus juncoides [7]) was 90% and the “Herbicidal rate (%) Lindernia pyxidaria” value [8] was 60%. The “Herbicidal rate (%) Monochoria vaginalis” value [8] was 70%, the “Herbicidal rate (%) Echinochloa crus-galli” value (Echinochloa crus-galli [9]) was 90% and the “Herbicidal rate (%) Scirpus juncoides” value (Scirpus juncoides [10]) was 90%. For the same molecule, the “herbicidal rate, Chenopodium album” value (Chenopodium album [11]) was 60%, the “herbicidal rate, Amaranthus viridis” value (Amaranthus viridis [12]) was 100% and the “herbicidal rate, Echinochloa crus-galli” value (Echinochloa crus-galli [13]) was 100%. For the same molecule, the “herbicidal rate, southern crabgrass” value (southern crabgrass [14]) was 100%.
In the case of `CCC(CC)n1oc(=O)c(Cc2ccccc2N(C(C)=O)S(=O)(=O)C(F)(F)F)c1C` [Compound 1-295], the “herbicidal effect … Chenopodium album” value (Chenopodium album [1]) is reported as 40%, the “herbicidal effect … Amaranthus viridis” value (Amaranthus viridis [2]) is reported as 40% and the “herbicidal effect (herbicidal rate), Echinochloa crus-galli” value (Echinochloa crus-galli [3]) is reported as 90%. For the same molecule, the “herbicidal effect … southern crabgrass” value (southern crabgrass [4]) was 90%, the “Herbicidal rate (%) Lindernia pyxidaria” value [5] was 90% and the “Herbicidal rate (%) Monochoria vaginalis” value [5] was 90%. The “Herbicidal rate (%) Echinochloa crus-galli” value (Echinochloa crus-galli [6]) was 90%, the “Herbicidal rate (%) Scirpus juncoides” value (Scirpus juncoides [7]) was 90% and the “Herbicidal rate (%) Lindernia pyxidaria” value [8] was 90%. The “Herbicidal rate (%) Monochoria vaginalis” value [8] was 90%, the “Herbicidal rate (%) Echinochloa crus-galli” value (Echinochloa crus-galli [9]) was 90% and the “Herbicidal rate (%) Scirpus juncoides” value (Scirpus juncoides [10]) was 90%. The “herbicidal rate, Chenopodium album” value (Chenopodium album [11]) was 90%, the “herbicidal rate, Amaranthus viridis” value (Amaranthus viridis [12]) was 90% and the “herbicidal rate, Echinochloa crus-galli” value (Echinochloa crus-galli [13]) was 90%. For the same molecule, the “herbicidal rate, southern crabgrass” value (southern crabgrass [14]) was 90%.
